Measurements published in paper PMC12155096 (International Journal of Molecular Sciences, 2025).
Read-outs that look alike come from different tables or passages of the source.

Tests used:
[1] = target: Photinus pyralis (firefly) luciferase (Photinus pyralis, UniProt P08659); experiment: biochemical; format: biochemical
human CYP2D6 = human CYP2D6 (Homo sapiens, UniProt P10635)
human CYP1A2 [2] = target: T1, human CYP1A2 (Homo sapiens, UniProt P05177); experiment: biochemical
T1 sequence (P05177 1-516): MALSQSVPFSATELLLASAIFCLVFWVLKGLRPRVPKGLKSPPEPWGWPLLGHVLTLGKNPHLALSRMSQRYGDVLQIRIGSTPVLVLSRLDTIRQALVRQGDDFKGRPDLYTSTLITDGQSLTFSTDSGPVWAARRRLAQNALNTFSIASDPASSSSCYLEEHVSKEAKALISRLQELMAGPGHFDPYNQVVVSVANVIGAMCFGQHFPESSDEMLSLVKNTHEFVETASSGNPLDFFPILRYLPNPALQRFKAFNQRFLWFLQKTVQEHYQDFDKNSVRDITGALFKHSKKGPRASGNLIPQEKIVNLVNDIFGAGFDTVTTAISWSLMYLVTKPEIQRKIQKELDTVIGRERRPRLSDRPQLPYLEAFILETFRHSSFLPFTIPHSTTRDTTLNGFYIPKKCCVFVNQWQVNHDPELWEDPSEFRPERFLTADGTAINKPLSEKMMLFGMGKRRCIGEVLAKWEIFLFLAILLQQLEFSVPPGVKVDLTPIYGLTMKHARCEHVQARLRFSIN

human CYP2C9 [3] = target: T2, human CYP2C9 (Homo sapiens, UniProt P11712); experiment: biochemical
T2 sequence (P11712 whole entry): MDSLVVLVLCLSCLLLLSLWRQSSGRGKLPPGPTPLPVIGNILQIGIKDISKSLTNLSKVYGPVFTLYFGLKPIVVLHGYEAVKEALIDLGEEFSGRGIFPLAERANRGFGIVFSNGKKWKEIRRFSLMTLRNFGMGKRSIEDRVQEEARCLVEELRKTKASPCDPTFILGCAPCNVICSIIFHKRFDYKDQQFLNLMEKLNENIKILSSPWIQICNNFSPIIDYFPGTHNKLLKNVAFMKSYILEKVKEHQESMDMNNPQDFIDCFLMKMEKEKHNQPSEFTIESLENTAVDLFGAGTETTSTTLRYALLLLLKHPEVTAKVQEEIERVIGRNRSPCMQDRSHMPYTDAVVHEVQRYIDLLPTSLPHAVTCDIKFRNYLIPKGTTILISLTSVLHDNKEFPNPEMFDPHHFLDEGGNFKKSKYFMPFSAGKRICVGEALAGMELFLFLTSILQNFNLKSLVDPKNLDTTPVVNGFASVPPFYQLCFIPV

human CYP2C19 [4] = target: T3, human CYP2C19 (Homo sapiens, UniProt P33261); experiment: biochemical
T3 sequence (P33261 whole entry): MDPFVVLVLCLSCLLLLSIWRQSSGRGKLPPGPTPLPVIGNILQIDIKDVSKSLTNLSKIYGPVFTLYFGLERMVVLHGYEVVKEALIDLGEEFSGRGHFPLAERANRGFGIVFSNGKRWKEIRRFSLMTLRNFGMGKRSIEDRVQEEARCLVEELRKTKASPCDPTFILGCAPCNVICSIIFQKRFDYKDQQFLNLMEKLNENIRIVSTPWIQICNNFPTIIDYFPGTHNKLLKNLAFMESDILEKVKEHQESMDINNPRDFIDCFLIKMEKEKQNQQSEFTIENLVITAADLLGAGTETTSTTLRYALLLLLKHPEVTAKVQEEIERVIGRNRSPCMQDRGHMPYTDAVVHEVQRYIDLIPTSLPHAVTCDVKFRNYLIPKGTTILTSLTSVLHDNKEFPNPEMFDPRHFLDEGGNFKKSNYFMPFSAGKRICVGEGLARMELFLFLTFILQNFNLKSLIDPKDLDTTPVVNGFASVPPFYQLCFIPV

human CYP1A2 [5] = target: T1, human CYP1A2
human CYP2C19 [6] = target: T3, human CYP2C19
CYP3A4 = CYP3A4 (Homo sapiens, UniProt P08684)
CYP3A4, sequence (P08684 whole entry): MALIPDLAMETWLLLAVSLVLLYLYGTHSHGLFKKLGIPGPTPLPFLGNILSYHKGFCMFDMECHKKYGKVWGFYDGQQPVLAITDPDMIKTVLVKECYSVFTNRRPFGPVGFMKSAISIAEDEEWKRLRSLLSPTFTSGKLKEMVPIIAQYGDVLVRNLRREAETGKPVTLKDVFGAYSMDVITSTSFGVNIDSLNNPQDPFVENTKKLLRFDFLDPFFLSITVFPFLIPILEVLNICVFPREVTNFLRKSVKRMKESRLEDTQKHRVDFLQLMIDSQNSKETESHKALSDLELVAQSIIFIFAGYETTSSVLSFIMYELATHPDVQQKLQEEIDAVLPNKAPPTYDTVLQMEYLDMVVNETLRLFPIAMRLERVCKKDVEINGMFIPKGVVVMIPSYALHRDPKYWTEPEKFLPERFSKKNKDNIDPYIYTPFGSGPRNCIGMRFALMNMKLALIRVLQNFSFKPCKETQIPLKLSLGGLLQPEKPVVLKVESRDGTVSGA

human CYP2C9 [7] = target: T2, human CYP2C9
[8] = CYP2C9 IC50 (half-maximal inhibitory concentration)
[9] = CYP2C19 IC50 (half-maximal inhibitory concentration)

human CYP2D6, sequence (P10635 whole entry): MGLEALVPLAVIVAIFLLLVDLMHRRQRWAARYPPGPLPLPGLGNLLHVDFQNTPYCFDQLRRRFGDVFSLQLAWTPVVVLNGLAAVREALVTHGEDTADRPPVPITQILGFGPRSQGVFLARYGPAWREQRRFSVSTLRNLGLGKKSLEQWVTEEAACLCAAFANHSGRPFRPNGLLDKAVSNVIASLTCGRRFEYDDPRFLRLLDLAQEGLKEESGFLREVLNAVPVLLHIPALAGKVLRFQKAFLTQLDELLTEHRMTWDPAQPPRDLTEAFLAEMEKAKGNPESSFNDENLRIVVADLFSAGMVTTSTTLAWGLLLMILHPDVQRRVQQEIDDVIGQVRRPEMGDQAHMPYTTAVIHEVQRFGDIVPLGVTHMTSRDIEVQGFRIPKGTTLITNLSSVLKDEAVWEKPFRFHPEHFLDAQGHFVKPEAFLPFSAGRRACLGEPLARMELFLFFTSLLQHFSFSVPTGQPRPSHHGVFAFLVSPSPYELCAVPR
Photinus pyralis (firefly) luciferase, sequence (P08659 whole entry): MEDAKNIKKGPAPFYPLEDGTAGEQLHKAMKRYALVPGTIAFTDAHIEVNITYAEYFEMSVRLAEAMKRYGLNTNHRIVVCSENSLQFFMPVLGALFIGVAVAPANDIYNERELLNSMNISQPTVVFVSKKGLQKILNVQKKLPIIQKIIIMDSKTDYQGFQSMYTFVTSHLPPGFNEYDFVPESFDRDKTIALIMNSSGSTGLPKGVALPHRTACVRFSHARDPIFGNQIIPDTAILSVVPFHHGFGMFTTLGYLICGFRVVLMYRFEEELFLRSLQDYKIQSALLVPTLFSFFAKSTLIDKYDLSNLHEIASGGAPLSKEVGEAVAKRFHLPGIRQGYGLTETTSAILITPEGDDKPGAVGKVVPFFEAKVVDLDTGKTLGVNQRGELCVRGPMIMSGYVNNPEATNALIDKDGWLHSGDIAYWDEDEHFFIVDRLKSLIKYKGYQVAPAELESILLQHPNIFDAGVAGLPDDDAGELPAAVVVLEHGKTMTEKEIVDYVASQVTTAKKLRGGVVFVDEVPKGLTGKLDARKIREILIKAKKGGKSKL

For `O=c1c(-c2ccc(O)cc2)coc2cc(O)ccc12` [Daidzein], the IC50 [1] was 19.6 µM, the “CYP2D6 IC50 (half-maximal inhibitory concentration)” value (human CYP2D6) was “Inactive” and the IC50 (human CYP1A2 [2]; CYP1A2 IC50 (half-maximal inhibitory concentration)) was 28.3 µM. For the same compound, the IC50 (human CYP2C9 [3]; [8]) was 0.36 µM and the IC50 (human CYP2C19 [4]; [9]) was 36.4 µM.
For `CCOP(=S)(OCC)Oc1cc(C)nc(C(C)C)n1` [Diazinon], the “Luciferase IC50” value [1] was “Inactive”, the “CYP2D6 IC50” value (human CYP2D6) was “Inactive” and the IC50 (human CYP1A2 [2]; CYP1A2 IC50) was 7.13 µM. The IC50 (human CYP2C9 [3]; CYP2C9 IC50) was 1.99 µM and the IC50 (human CYP2C19 [4]; CYP2C19 IC50) was 0.44 µM.
For `ClC1=C(Cl)C2(Cl)C3C4CC(C5OC45)C3C1(Cl)C2(Cl)Cl` (stereo not shown) [Endrin], the “Luciferase IC50” value [1] was “Inactive”, the “CYP2D6 IC50” value (human CYP2D6) was “Inactive” and the IC50 (human CYP1A2 [2]; CYP1A2 IC50) was 54 µM. It also gave an IC50 (human CYP2C9 [3]; CYP2C9 IC50) of 12.4 µM and an IC50 (human CYP2C19 [4]; CYP2C19 IC50) of 26.6 µM.
For `CCN(CC)C(=O)/C(C#N)=C/c1cc(O)c(O)c([N+](=O)[O-])c1` [Entacapone], the “Luciferase IC50 (half-maximal inhibitory concentration)” value [1] was “Inactive”, the “CYP1A2 IC50 (half-maximal inhibitory concentration)” value (human CYP1A2 [5]) was “Inactive” and the “CYP2C19 IC50 (half-maximal inhibitory concentration)” value (human CYP2C19 [6]) was “Inactive”. For the same compound, the “CYP2D6 IC50 (half-maximal inhibitory concentration)” value (human CYP2D6) was “Inactive”, the “CYP3A4 IC50 (half-maximal inhibitory concentration)” value (CYP3A4) was “Inactive” and the IC50 (human CYP2C9 [3]; [8]) was 0.2 µM.
`C#Cc1ccc(-c2ccccc2F)cc1` [Fluretofene] was tested, and the IC50 [1] was 25.8 µM, the IC50 (human CYP1A2 [2]) was 0.88 µM and the IC50 (human CYP2C9 [3]) was 16.1 µM. The IC50 (human CYP2C19 [4]) was 25.7 µM.
With `C=CCOC(Cn1ccnc1)c1ccc(Cl)cc1Cl.O=S(=O)(O)O` (stereo not shown) [Imazalil sulfate] the “Luciferase IC50 (half-maximal inhibitory concentration)” value [1] was “Inactive”, the “CYP2C9 Efficacy (in parenthesis)” value (human CYP2C9 [7]) was 0.63 ± 0.18 (-107 ± 5) % and the IC50 (human CYP2C9 [7]) was 0.63 µM. The “CYP2C19 Efficacy (in parenthesis)” value (human CYP2C19 [6]) was 0.22 ± 0.08 (-143 ± 13) %, the IC50 (human CYP2C19 [6]) was 0.22 µM and the “CYP2D6 Efficacy (in parenthesis)” value (human CYP2D6) was 5.1 ± 0.35 (-106 ± 4) %. For the same compound, the IC50 (human CYP2D6) was 5.1 µM, the “CYP3A4 Efficacy (in parenthesis)” value (CYP3A4) was 0.12 ± 0.02 (-91 ± 3) % and the IC50 (CYP3A4) was 0.12 µM.
`CCC(C)n1ncn(-c2ccc(N3CCN(c4ccc(OCC5COC(Cn6cncn6)(c6ccc(Cl)cc6Cl)O5)cc4)CC3)cc2)c1=O` (stereo not shown) [Itraconazole] was tested, and the “Luciferase IC50 (half-maximal inhibitory concentration)” value [1] was “Inactive”, the “CYP1A2 IC50 (half-maximal inhibitory concentration)” value (human CYP1A2 [5]) was “Inactive” and the “CYP2C9 Efficacy (in parenthesis)” value (human CYP2C9 [7]; human) was 14.05 ± 3.21 (-81 ± 13) %. The “CYP2C19 Efficacy (in parenthesis)” value (human CYP2C19 [6]; human) was 8.3 ± 4.22 (-53 ± 15) %, the “CYP2D6 IC50 (half-maximal inhibitory concentration)” value (human CYP2D6) was “Inactive” and the IC50 (human CYP2C9 [3]; [8]) was 14 µM. For the same compound, the IC50 (human CYP2C19 [4]; [9]) was 8.3 µM.
For `NS(=O)(=O)C(F)(F)C(F)(F)C(F)(F)C(F)(F)C(F)(F)C(F)(F)C(F)(F)C(F)(F)F` [PFOSA], the “Luciferase IC50 (half-maximal inhibitory concentration)” value [1] was “Inactive”, the “CYP1A2 IC50 (half-maximal inhibitory concentration)” value (human CYP1A2 [5]) was “Inactive” and the “CYP2D6 IC50 (half-maximal inhibitory concentration)” value (human CYP2D6) was “Inactive”. The “CYP3A4 IC50 (half-maximal inhibitory concentration)” value (CYP3A4) was “Inactive”, the IC50 (human CYP2C9 [3]; [8]) was 0.71 µM and the IC50 (human CYP2C19 [4]; [9]) was 64.3 µM.
With `CCCCCCCCCCCCCCCCCC(=O)O.OCCN(CCO)CCO` [Triethanolamine stearate] the “Luciferase Efficacy (in parenthesis)” value [1] was 74.82 ± 6.08 (-26 ± 14) %, the IC50 ([1]; read-out: Luciferase IC50 (half-maximal inhibitory concentration)) was 74.8 µM and the “CYP1A2 Efficacy (in parenthesis)” value (human CYP1A2 [5]) was 3.98 ± 2.02 (-97 ± 4) %. For the same compound, the IC50 (human CYP1A2 [5]) was 3.98 µM, the “CYP2C9 Efficacy (in parenthesis)” value (human CYP2C9 [7]) was 1.38 ± 0.34 (-98 ± 6) % and the IC50 (human CYP2C9 [7]) was 1.38 µM. The “CYP2C19 Efficacy (in parenthesis)” value (human CYP2C19 [6]) was 0.42 ± 0.18 (-127 ± 1) %, the IC50 (human CYP2C19 [6]) was 0.42 µM and the “CYP2D6 Efficacy (in parenthesis)” value (human CYP2D6) was 35.34 ± 0 (-82 ± 6) %. It also gave an IC50 (human CYP2D6) of 35.3 µM.
With `Cl[C@H]1[C@H](Cl)[C@@H](Cl)[C@H](Cl)[C@@H](Cl)[C@@H]1Cl` [beta-Hexachlorocyclohexane] the “Luciferase IC50” value [1] was “Inactive”, the “CYP2D6 IC50” value (human CYP2D6) was “Inactive” and the IC50 (human CYP1A2 [2]; CYP1A2 IC50) was 1.14 µM. For the same compound, the IC50 (human CYP2C9 [3]; CYP2C9 IC50) was 4.17 µM and the IC50 (human CYP2C19 [4]; CYP2C19 IC50) was 1.96 µM.
With HMR1171 trifluoroacetate (1:1) the “Luciferase IC50” value [1] was “Inactive”, the “CYP1A2 IC50” value (human CYP1A2 [5]) was “Inactive” and the IC50 (human CYP2C9 [7]) was 28.1 µM. The IC50 (human CYP2C19 [6]) was 28.3 µM and the IC50 (human CYP2D6) was 8.87 µM.
